Results reported in ChEMBL document CHEMBL3301361, “Experimental in vitro DMPK and physicochemical data on a set of publicly disclosed compounds”.
Residues, ends and D or L forms follow the SMILES beside them.

Experiment: in vitro
Details: human, plasma

Structure (SMILES)	fraction unbound at 5 h
O=C1COc2ccc(CNC3CCN(CCN4C(=O)COc5ccc([N+](=O)[O-])cc54)CC3)nc2N1	0.249
COC(=O)N(C)c1c(N)nc(-c2nn(Cc3ccccc3F)c3ncccc23)nc1N [RIOCIGUAT]	0.0854
CN1CCN2c3ccccc3CC3(C(=O)N(C)C(=O)N(C)C3=O)C2C1 (stereo unspecified)	0.035
Cc1ccc(Cl)cc1NC(=O)CCS(=O)(=O)c1ccc(Br)s1	0.0111
Cc1ccnc2c1NC(=O)c1cccnc1N2C1CC1 [NEVIRAPINE]	0.557
COc1cc(/C=C2\SC(=O)NC2=O)ccc1Oc1ccc(C#N)cc1C(F)(F)F	0.0005

Same assay, conditions: human, plasma, PPB

Structure (SMILES)	fraction unbound at 5 h
O=C(Nc1ccccc1-c1cn2c(CN3CCNCC3)csc2n1)c1cnc2ccccc2n1	0.0099
CN(C)c1cc(NC(=O)Nc2cccc(Cl)c2)c2ccccc2n1	0.0014
CN[C@@H](C)C(=O)N[C@H](C(=O)N1CCC[C@H]1C(=O)N[C@@H]1CCCc2ccccc21)C(C)(C)C	0.0801
O=C(COc1ccccc1Cl)c1ccc[nH]1	0.0676
Nc1nc(OCC2CCC2)nc2c1ncn2[C@@H]1O[C@H](CF)[C@@H](O)[C@H]1O	0.228
NS(=O)(=O)c1ccc(N2N=C(c3ccc(Br)cc3)CC2c2ccc(F)cc2)cc1 (stereo unspecified)	0.105
CCOC(=O)[C@H](CCc1ccccc1)N[C@@H](C)C(=O)N1Cc2ccccc2C[C@H]1C(=O)O	0.0418
CN(C)CCNc1cc(-c2ccncc2)nc2ccccc12	0.142
O=C(O)c1ccc2nc(C(F)(F)F)[nH]c2c1	0.101
Fc1ccc(-c2c3cccc(C(F)(F)F)c3nn2Cc2ccc(F)cc2Cl)cc1 [LXR-623]	0.0006
COc1cc(OC)c(S(=O)(=O)N2c3ccccc3CCC2C)cc1NC(=S)NCC(=O)O (stereo unspecified)	0.309
CCCCCCCC(=O)N[C@@H](CCN)C(=O)N[C@H](C(=O)N[C@@H](C)C(=O)N[C@H]1CCNC(=O)[C@H]([C@@H](C)O)NC(=O)[C@H](CCN)NC(=O)[C@H](CCN)NC(=O)[C@H](CC(C)C)NC(=O)[C@@H](Cc2ccccc2)NC(=O)[C@H](CCN)NC1=O)[C@@H](C)O (HELM PEPTIDE1{[CCCCCCCC(=O)[*:2]].[Dab].T.A.[Dab].[Dab].[dF].L.[Dab].[Dab].T}$PEPTIDE1,PEPTIDE1,5:R3-11:R2$$$V2.0)	0.112
CCN(Cc1cccc2ccccc12)c1cc(N2CCOCC2)nc(=O)[nH]1	0.0358
C[C@H](Nc1ncc(Cl)c(Nc2cc(C3CC3)[nH]n2)n1)c1ncc(F)cn1	0.0568
CCCCCCCC(=O)N[C@@H](CCN)C(=O)N[C@H](C(=O)N[C@@H](CCN)C(=O)N[C@H]1CCNC(=O)[C@H]([C@@H](C)O)NC(=O)[C@H](C)NC(=O)[C@H](CCN)NC(=O)[C@H](CC(C)C)NC(=O)[C@@H](Cc2ccccc2)NC(=O)[C@H](CCN)NC1=O)[C@@H](C)O (HELM PEPTIDE1{[CCCCCCCC(=O)[*:2]].[Dab].T.[Dab].[Dab].[Dab].[dF].L.[Dab].A.T}$PEPTIDE1,PEPTIDE1,5:R3-11:R2$$$V2.0)	0.132
CC(C)Oc1cc2ncc(C(N)=O)c(Nc3ccc(F)cc3F)c2cc1N1CCN(C)CC1	0.0171
O=C(NCC12CC3CC(CC(C3)C1)C2)c1cc(OCCNCCCO)ncc1Cl	0.11
Cc1nc(C(F)(F)F)ccc1C(=O)Nc1ccc(Cl)c(-c2ccccn2)c1	0.0099
CS(=O)(=O)c1ccc(C2=C(c3ccccc3)C(=O)OC2)cc1 [ROFECOXIB]	0.069
O=C(/C=C/c1ccccc1Cl)Nc1ccc2c(c1)C(=O)NC2=O	0.0948
COc1cc(OC)c(S(=O)(=O)N2c3ccccc3CCC2C)cc1NC(=O)NCC(=O)O (stereo unspecified)	0.28
N#Cc1c(-c2ccc(-c3ccncc3Cl)cc2)nc2ccncc2c1O	0.0055
Cc1ccc(-c2cc(C(=O)NCc3cn(C)nc3C)c3cc(Br)ccc3n2)cc1	0.0063
COc1ccc(-c2nc3ccc(C4=NNC(=O)CC4C)cc3[nH]2)cc1 (stereo unspecified) [PIMOBENDAN]	0.11
COc1cc2ncc(C(N)=O)c(Nc3cccc(Cl)c3Cl)c2cc1NCCN1CCCCC1	0.0209
CC(=O)Nc1ccc2c(c1)c(-c1cc(NC3CC3)n3ncc(C#N)c3n1)cn2CCO	0.0179
O=C(CN1CCCC1)N1c2ccccc2Sc2ccc(C(F)(F)F)cc21	0.0229
CCOc1cc2ncc(C(N)=O)c(Nc3cccc(Cl)c3Cl)c2cc1N1CCCN(C)CC1	0.0163

Structure (SMILES)	fraction unbound at 5 h
COc1cc(OC)c(S(=O)(=O)NCc2ccccc2N2CCC(CC(=O)O)CC2)cc1NC(=O)CCC(=O)O	0.0872
COCCC(Oc1ncnc2c1cnn2-c1ccccc1OC)C(=O)Nc1ccc(C)cn1 (stereo unspecified)	0.139
COc1cc2ncc(C(N)=O)c(Nc3ccc(Cl)c(Cl)c3)c2cc1N1CCN(C)CC1	0.0358
COc1ccc(N(C(=O)c2ccccc2)C(C(=O)NC2CCCC2)c2ccccc2F)c(OC)c1 (stereo unspecified)	0.0033
Cc1ncc(NC(=O)c2cc(NC(=O)c3cccc(C(F)(F)F)c3)ccc2Cl)s1	0.004
COCCOc1cc2ncc(C(N)=O)c(Nc3cc(C)ccc3F)c2cc1N1CCN(C)CC1	0.163
Cc1nccn1-c1ccc(Sc2cccc(C3(C(N)=O)CCOCC3)c2)cc1	0.069
CC(C)Oc1cc2ncc(C(N)=O)c(Nc3cccc(Cl)c3F)c2cc1N1CCN(C)CC1	0.0488
CCCc1cc(C2=N[C@@H](C(=O)NO)CO2)cc(OC)c1OC	0.0568
COc1ccc(Cl)cc1NC(=O)CCS(=O)(=O)c1ccc(C)cc1	0.0219
CCOc1cc2ncc(C(N)=O)c(Nc3ccc(F)cc3F)c2cc1N1CCCN(C2CC2)CC1	0.0219
CN(CC(=O)O)NC(=O)C[C@H](N)C[C@@H](O)CN [NEGAMYCIN]	0.874
Cc1ncc(NC(=O)c2cc(NC(=O)c3cccc(C(F)(F)F)c3)ccc2C)s1	0.0119
COc1cc(OC)c(S(=O)(=O)N2c3ccccc3CCC2C)cc1NC(=O)Cc1ccnc(F)c1 (stereo unspecified)	0.0544
CN[C@@H](C)C(=O)N[C@H](C(=O)N[C@H]1CCCN(CCc2ccc(Cl)cc2)C1)C(C)(C)C	0.0293
O=C(COc1cccc(Cl)c1)NC1CCN(Cc2ccn(-c3ccc(C(F)(F)F)cc3)c2)CC1	0.0072
COc1ccc2ncc(=O)n(CCN3CC[C@H](NCc4cc5c(cn4)OCCO5)[C@H](O)C3)c2c1	0.194
CN1CCN(c2ccc3ncc(C(N)=O)c(Nc4ccc(Cl)c(Cl)c4)c3c2)CC1	0.0581
Nc1ccc(S(=O)(=O)Nc2ccnn2-c2ccccc2)cc1 [SULFAPHENAZOLE]	0.0059
COc1cc(OC)c(S(=O)(=O)N2c3ccccc3CCC2C)cc1NC(=O)CSc1ccncc1 (stereo unspecified)	0.0293
O=C1NCCc2[nH]c(-c3ccncc3)cc21	0.586
CCN(CC)CCOc1ccc2c(c1)C(=O)c1cc(OCCN(CC)CC)ccc1-2 [TILORONE]	0.517
COc1cnc(-c2ccccn2)nc1N1CCCCC1	0.0488
COc1cc(OC)c(S(=O)(=O)N2c3ccccc3CC2C)cc1NC(C)=O (stereo unspecified)	0.0437
O=c1[nH]cnc2scc(-c3cccs3)c12	0.0111
CN[C@@H](C)C(=O)N[C@H](C(=O)N[C@H]1CCCN([C@@H]2CCCc3ccccc32)C1)C1CCCCC1	0.0676
Cc1cccc(Nc2nc(NCc3ccco3)c3ccccc3n2)c1	0.0007
